Source: PubChem BioAssay (NCI)
“And” between values parts separate entries of the source, which are not always exact repeats. Identical values can stand only once.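 Method: 48-hour compound exposure of cells in 96-well plates, five concentrations, linear interpolation of endpoints. GI50 = concentration required for 50% inhibition of growth. The concentration for full growth arrest is given as TGI.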

Columns and labels:
Experiment in all cases: DTP human tumour cell line panel, 48 h
KM12 colon = system: KM12 colon
SNB-19 CNS = system: SNB-19 CNS
SW-620 colon = system: SW-620 colon
K-562 leukemia = system: K-562 leukemia
HT29 colon = system: HT29 colon
786-0 renal = system: 786-0 renal
HOP-92 NSCLC = system: HOP-92 NSCLC
A498 renal = system: A498 renal
SF-539 CNS = system: SF-539 CNS
U251 CNS = system: U251 CNS

Structure (SMILES) | GI50 (KM12 colon) | TGI (KM12 colon) | GI50 (SNB-19 CNS) | TGI (SNB-19 CNS) | GI50 (SW-620 colon) | TGI (SW-620 colon) | GI50 (K-562 leukemia) | TGI (K-562 leukemia) | GI50 (HT29 colon) | TGI (HT29 colon) | GI50 (786-0 renal) | TGI (786-0 renal) | GI50 (HOP-92 NSCLC) | TGI (HOP-92 NSCLC) | GI50 (A498 renal) | TGI (A498 renal) | GI50 (SF-539 CNS) | TGI (SF-539 CNS) | GI50 (U251 CNS) [µM] | TGI (U251 CNS)
O=C1/C(=C/c2ccccc2F)CNC/C1=C\c1ccccc1F | 0.189 µM and 0.197 µM | 0.519 µM and 0.39 µM | 0.643 µM and 1.01 µM | 2.66 µM and 3.99 µM | 0.236 µM and 0.245 µM | 3.49 µM and 0.647 µM | 0.27 µM and 0.341 µM | 2.27 µM and 2.63 µM | 0.261 µM and 0.242 µM | 1.17 µM and 0.543 µM | 0.233 µM and 0.739 µM | 0.505 µM and 2.15 µM | 2.82 µM and 1.92 µM | 7.37 µM and 4.71 µM | 0.194 µM and 1.52 µM | 0.978 µM and 2.98 µM | 0.269 µM and 0.87 µM | 0.828 µM and 2.99 µM | 0.165 | 0.362 µM and 0.372 µM
COC(=O)c1cc(-c2cc(OC)c(OC)c(OC)c2)[nH]c1N/N=C/c1c(Cl)cccc1Cl | 0.801 µM | 6.94 µM | 3.37 µM | 21.4 µM | 1.51 µM | > 33.8 µM |  | > 100 µM | 3.18 µM | > 82.4 µM | 2.03 µM | 7.18 µM | 0.857 µM | 7.48 µM | 0.683 µM | 2.46 µM | 1.35 µM | 5.47 µM | 2.17 | 10.1 µM
COc1ccc(C(=O)/C=C/c2c(C(F)(F)F)nc3sccn23)cc1OC | 1.97 µM | 11.1 µM | 4.25 µM | > 100 µM | 1.49 µM | > 100 µM | 2.25 µM | > 100 µM | 2.01 µM | > 100 µM | 5.67 µM | > 100 µM | 5.87 µM | 59.6 µM | 7.58 µM | 54.9 µM | 2.36 µM | 8.52 µM | 1.87 | > 100 µM
Cc1cc(NC(=O)NC(=O)c2ccccc2N)ccc1Oc1ncc(Br)cn1 |  | 54.9 µM |  | 38.5 µM |  | > 100 µM |  | > 100 µM |  | 0.258 µM |  | 41.2 µM |  | 53.8 µM |  | 0.751 µM |  | 0.287 µM |  | 7.25 µM
CCN1CCN(CC(=O)Nc2nc3ccc(NCc4ccc(Cl)cc4)cc3s2)CC1 | 3.73 µM | > 100 µM | 3.12 µM | 10.7 µM | 2.1 µM | 4.78 µM | 1.63 µM | 4.14 µM | 2.02 µM | 4.61 µM | 6.38 µM | 20.1 µM | 1.12 µM | 2.77 µM | 4.09 µM | 17 µM | 1.69 µM | 3.18 µM | 2 | 4.03 µM
COc1cc2c3c(n(CCCNCC(OC)OC)c(=O)c2cc1OC)-c1cc2c(cc1C3=O)OCO2 | 2.14 µM | 34.6 µM | 10.2 µM | > 100 µM | 2.05 µM | 24.2 µM | 0.91 µM | > 46.8 µM | 4.99 µM | 32.2 µM | 0.274 µM | 8.75 µM | 1.45 µM | 19.1 µM | 14 µM | 33.9 µM | 2.42 µM | 24.9 µM | 4.32 | > 48.6 µM
C=C(C)[C@@H]1CC[C@]2(C(=O)NCCNCCNCCN)CC[C@]3(C)[C@H](CC[C@@H]4[C@@]5(C)CC[C@H](O)C(C)(C)[C@@H]5CC[C@]43C)[C@@H]12 | 6.81 µM | 26.2 µM | 12.9 µM | 28.2 µM | 14.7 µM | 34.4 µM | 6.9 µM | > 100 µM | 14.6 µM | 34 µM | 12.4 µM | 25.2 µM | 4.61 µM | 19.7 µM | 19.6 µM | 64.7 µM | 11.1 µM | 23.7 µM | 12.7 | 27.1 µM
C=CCNCCCN1C(=O)c2ccc3c4c(ccc(c24)C1=O)C(=O)N(CCCNCC=C)C3=O | 0.417 µM | 1.62 µM | 0.592 µM | 1.96 µM | 0.265 µM | 1.51 µM | 0.296 µM | 1.48 µM | 0.157 µM | 0.499 µM | 0.831 µM | 4.7 µM | 1.56 µM | 7.83 µM | 0.394 µM | 1.76 µM | 0.584 µM | 2.41 µM | 0.269 | 1 µM
CN1CCN(c2nc(NCCCCNc3ccnc4cc(Cl)ccc34)c3ccccc3n2)CC1 | 8.25 µM | 25.1 µM | 4.28 µM | 20.8 µM | 4.42 µM | 18.2 µM | 2.53 µM | 11.8 µM | 2 µM | 5.49 µM | 1.65 µM | 3.26 µM | 1.66 µM | 4.12 µM | 12.1 µM | 25 µM | 1.62 µM | 3.25 µM | 3.27 | 10.1 µM
C=C1C(=O)OC2C1CC[C@H](C)C13OC(=O)CC1[C@@]23C (some centres undefined) |  | > 100 µM |  | > 100 µM |  | > 100 µM |  | > 100 µM |  | > 100 µM |  | > 100 µM |  | > 100 µM |  | > 100 µM |  | > 100 µM |  | > 100 µM
CCc1cccc2c3c(sc12)C(c1ccc(Cl)cc1)C(C#N)=C(N)O3 (centres undefined) | 0.447 µM | 13.1 µM | 0.499 µM | 12.1 µM | 0.45 µM | 12.2 µM | 0.391 µM | > 100 µM | 0.457 µM | 3.61 µM | 0.94 µM | 14.7 µM | 0.753 µM | 6.92 µM | 0.224 µM | 1.52 µM | 0.36 µM | 1.56 µM | 0.496 | 5.26 µM
NNC(=O)CCC(=O)Nc1cc(Cl)c(Cl)cc1Cl |  | > 100 µM |  | > 100 µM |  | > 100 µM |  | > 100 µM |  | > 100 µM |  | > 100 µM |  | > 100 µM |  | > 100 µM |  | > 100 µM |  | > 100 µM
O=C1/C(=C/c2ccc3c(c2)OCO3)CCC1CN1CCOCC1 (centres undefined) |  | 11 µM |  | 31.2 µM |  | 4.83 µM |  | 8.42 µM |  | 38.5 µM |  | 11.3 µM |  | 29.3 µM |  | 23.9 µM |  | 28.1 µM |  | 14.3 µM
